The results in this text go back to PubChem BioAssay AID256 (DTP/NCI, 2004).

Where “and” joins values, the source holds several entries; their conditions need not be identical. Equal entries are not always repeated. Inconclusive results and toxic doses are left out.

The assay concerns CD2F1 mice, L1210 leukemia ip, survival T/C. In words: NCI In Vivo Anticancer Drug Screen. Data for tumor model L1210 Leukemia (intraperitoneal) in CD2F1 (CDF1) mice. As to conditions: endpoint: mean survival time, higher = longer survival. The procedure, abridged:
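Each value reflects a quotient of treated over vehicle control outcomes in mice with a transplanted tumor.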

Setting [1] is: dose: 100.0 mg/kg/injection, schedule: Q04DX003 (ip), vehicle: saline with Tween-80.
Where [2] appears, read: dose: 200.0 mg/kg/injection, schedule: Q04DX003 (ip), vehicle: saline with Tween-80.
Where [3] appears, read: dose: 400.0 mg/kg/injection, schedule: Q04DX003 (ip), vehicle: saline with Tween-80.
[4] abbreviates: dose: 100.0 mg/kg/injection, schedule: Q01DX009 (ip), vehicle: saline with Tween-80.
The mark [5] stands for this setting: dose: 200.0 mg/kg/injection, schedule: Q01DX009 (ip), vehicle: saline with Tween-80.
The mark [6] stands for this setting: dose: 400.0 mg/kg/injection, schedule: Q01DX009 (ip), vehicle: saline with Tween-80.

Take `COc1cc([NH-])c([NH-])cc1OC.[Cl][Pt+2][Cl]`: the T/C is 103 % of control (dose: 1.25 mg/kg/injection, schedule: Q01DX009 (ip), vehicle: saline with Tween-80); 107 % of control (dose: 2.5 mg/kg/injection, schedule: Q01DX009 (ip), vehicle: saline with Tween-80); 105 % of control (dose: 5.0 mg/kg/injection, schedule: Q01DX009 (ip), vehicle: saline with Tween-80); 106 % of control (dose: 10.0 mg/kg/injection, schedule: Q01DX009 (ip), vehicle: saline with Tween-80); 104 % of control and 111 % of control (dose: 20.0 mg/kg/injection, schedule: Q01DX009 (ip), vehicle: saline with Tween-80); 107 % of control (dose: 40.0 mg/kg/injection, schedule: Q01DX009 (ip), vehicle: saline with Tween-80). In addition, the T/C was 107 % of control (dose: 80.0 mg/kg/injection, schedule: Q01DX009 (ip), vehicle: saline with Tween-80) and 92 % of control (dose: 160.0 mg/kg/injection, schedule: Q01DX009 (ip), vehicle: saline with Tween-80).
For the molecule `CC1CCCC2C(=O)OC(=O)C12` (stereo not drawn), the T/C (dose: 100.0 mg/kg/injection, schedule: Q04DX003 (ip), vehicle: Klucel (hydroxypropylcellulose) (HPC)) is 92 % of control and the T/C (dose: 200.0 mg/kg/injection, schedule: Q04DX003 (ip), vehicle: Klucel (hydroxypropylcellulose) (HPC)) is 98 % of control.
As to `CN(C)Cc1cc(C(C)(C)C)cc(C2CCCCC2)c1O`, the T/C under setting [1] was 100 % of control, the T/C under setting [2] was 100 % of control and the T/C under setting [3] is 103 % of control.
For the molecule `CCN(CC)CCN(C)C(=O)C(O)(c1ccccc1)c1ccccc1`, the T/C was 100 % of control (dose: 75.0 mg/kg/injection, schedule: Q01DX001 (ip), vehicle: saline); 103 % of control (dose: 150.0 mg/kg/injection, schedule: Q01DX001 (ip), vehicle: saline); 102 % of control (dose: 300.0 mg/kg/injection, schedule: Q01DX001 (ip), vehicle: saline).
Consider `COC(=O)c1ccccc1NCC(O)C(O)C(O)CO` (stereo not drawn), for which the T/C is 98 % of control (dose: 100.0 mg/kg/injection, schedule: Q01DX001 (ip), vehicle: saline); 101 % of control (dose: 200.0 mg/kg/injection, schedule: Q01DX001 (ip), vehicle: saline); 86 % of control (dose: 400.0 mg/kg/injection, schedule: Q01DX001 (ip), vehicle: saline).
As for `CN(C)CCOc1ccccn1`, the T/C reads like this: under setting [4], 93 % of control; under setting [1], 92 % of control; under setting [5], 95 % of control; under setting [2], 87 % of control; under setting [6], 87 % of control; under setting [3], 87 % of control.
On to `N=Cc1c(O)n(C2CCCCC2)c(=O)[nH]c1=O`, for which the T/C is 98 % of control under setting [4]; 93 % of control under setting [1]; 94 % of control under setting [5]; 93 % of control under setting [2]; 98 % of control under setting [6]; 91 % of control under setting [3].
For the molecule `O=C(OCC1OC(n2cnc3c(=S)nc[nH]c32)C(OC(=O)c2ccc([N+](=O)[O-])cc2)C1OC(=O)c1ccc([N+](=O)[O-])cc1)c1ccc([N+](=O)[O-])cc1` (stereo not drawn), where the note is “dose: 132.0 mg/kg/injection, schedule: Q01DX009 (ip), vehicle: saline with Tween-80”, the T/C was 157 % of control.
For `NCC1=NCCN1`, the T/C (dose: 100.0 mg/kg/injection, schedule: Q04DX002 (ip), vehicle: saline) is 124 % of control; the T/C (dose: 200.0 mg/kg/injection, schedule: Q04DX002 (ip), vehicle: saline) was 95 % of control; the T/C (dose: 400.0 mg/kg/injection, schedule: Q04DX002 (ip), vehicle: saline) was 102 % of control.
Turning to `O=C(CC(SCCN1CCOCC1)c1ccccc1)c1ccc([N+](=O)[O-])cc1` (stereo not drawn), the T/C was 93 % of control (dose: 100.0 mg/kg/injection, schedule: Q01DX001 (ip), vehicle: Klucel (hydroxypropylcellulose) (HPC)) and 93 % of control (dose: 200.0 mg/kg/injection, schedule: Q01DX001 (ip), vehicle: Klucel (hydroxypropylcellulose) (HPC)).
As to `Nc1nc(N)c2c(n1)NCN(CCc1c(Cl)cccc1Cl)C2`, the T/C was 98 % of control (dose: 0.75 mg/kg/injection, schedule: Q01DX009 (ip), vehicle: distilled water + Tween-80); 102 % of control (dose: 1.5 mg/kg/injection, schedule: Q01DX009 (ip), vehicle: distilled water + Tween-80); 98 % of control (dose: 3.0 mg/kg/injection, schedule: Q01DX009 (ip), vehicle: distilled water + Tween-80); 98 % of control (dose: 6.0 mg/kg/injection, schedule: Q01DX009 (ip), vehicle: distilled water + Tween-80); 104 % of control (dose: 12.0 mg/kg/injection, schedule: Q01DX009 (ip), vehicle: distilled water + Tween-80); 98 % of control (dose: 24.0 mg/kg/injection, schedule: Q01DX009 (ip), vehicle: distilled water + Tween-80). Moreover, the T/C (dose: 37.5 mg/kg/injection, schedule: Q01DX009 (ip), vehicle: distilled water + Tween-80) was 100 % of control and the T/C (dose: 75.0 mg/kg/injection, schedule: Q01DX009 (ip), vehicle: distilled water + Tween-80) is 97 % of control.
In the case of `COc1cccc(/C=N/NC(=O)CNC(=O)Nc2cccc(Cl)c2)c1OC`, the T/C reads like this: under setting [4], 101 % of control; under setting [5], 109 % of control; under setting [6], 103 % of control.
As for `O=C1C(=O)c2cccnc2C(NC2CC3CCC2C3)=C1Cl` (stereo not drawn), the T/C reads like this: (dose: 75.0 mg/kg/injection, schedule: Q04DX003 (ip), vehicle: saline) 95 % of control; (dose: 150.0 mg/kg/injection, schedule: Q04DX003 (ip), vehicle: saline) 98 % of control; (dose: 300.0 mg/kg/injection, schedule: Q04DX003 (ip), vehicle: saline) 97 % of control.
Take `CCOC(=O)/C(C#N)=N/Nc1ccc(Cl)cc1`: the T/C (dose: 100.0 mg/kg/injection, schedule: Q04DX002 (ip), vehicle: saline with Tween-80) was 108 % of control; the T/C (dose: 200.0 mg/kg/injection, schedule: Q04DX002 (ip), vehicle: saline with Tween-80) is 100 % of control; the T/C (dose: 400.0 mg/kg/injection, schedule: Q04DX002 (ip), vehicle: saline with Tween-80) is 92 % of control.
With `CCn1c(C)nc2cc(C(N)=O)ccc21`, the T/C is, setting by setting: under setting [4], 97 % of control; under setting [1], 100 % of control; under setting [5], 91 % of control; under setting [2], 96 % of control; under setting [3], 102 % of control.
For `ClC(Cl)c1c2c(cc3c1CCCC3)CCCC2`, the T/C under setting [4] was 113 % of control, the T/C under setting [5] was 116 % of control and the T/C under setting [6] was 102 % of control.
In the case of `O=[N+]([O-])CC1CCCCC1O` (stereo not drawn), the T/C runs as follows: (dose: 6.25 mg/kg/injection, schedule: Q01DX009 (ip), vehicle: saline with Tween-80) 89 % of control; (dose: 6.25 mg/kg/injection, schedule: Q04DX003 (ip), vehicle: saline with Tween-80) 102 % of control; (dose: 12.5 mg/kg/injection, schedule: Q01DX009 (ip), vehicle: saline with Tween-80) 91 % of control; (dose: 12.5 mg/kg/injection, schedule: Q04DX003 (ip), vehicle: saline with Tween-80) 96 % of control; (dose: 25.0 mg/kg/injection, schedule: Q01DX009 (ip), vehicle: saline with Tween-80) 94 % of control; (dose: 25.0 mg/kg/injection, schedule: Q04DX003 (ip), vehicle: saline with Tween-80) 93 % of control.
Turning to `O=C1c2ccccc2C(=O)N1CC(O)CN1C(=O)c2ccccc2C1=O`, the T/C (dose: 50.0 mg/kg/injection, schedule: Q01DX001 (ip), vehicle: other) was 98 % of control; the T/C (dose: 100.0 mg/kg/injection, schedule: Q01DX001 (ip), vehicle: other) is 100 % of control; the T/C (dose: 200.0 mg/kg/injection, schedule: Q01DX001 (ip), vehicle: other) was 93 % of control; the T/C (dose: 400.0 mg/kg/injection, schedule: Q01DX001 (ip), vehicle: other) is 94 % of control.
Consider `C=C1C(=O)OC2CC(C)C3C=CC(=O)C3CC12` (stereo not drawn), for which the T/C was 106 % of control (dose: 0.5 mg/kg/injection, schedule: Q01DX009 (ip), vehicle: Klucel (hydroxypropylcellulose) (HPC)); 102 % of control (dose: 1.0 mg/kg/injection, schedule: Q01DX009 (ip), vehicle: Klucel (hydroxypropylcellulose) (HPC)); 105 % of control (dose: 18.75 mg/kg/injection, schedule: Q01DX009 (ip), vehicle: Klucel (hydroxypropylcellulose) (HPC)).
As to `CCN(CC)C(=O)c1cc[n+](Cc2ccc(Cl)cc2)cc1`, the T/C (dose: 100.0 mg/kg/injection, schedule: Q04DX003 (ip), vehicle: saline) was 106 % of control and the T/C (dose: 200.0 mg/kg/injection, schedule: Q04DX003 (ip), vehicle: saline) is 103 % of control.
Regarding `CN(C)CCP(c1ccccc1)c1ccccc1`, the T/C (dose: 75.0 mg/kg/injection, schedule: Q01DX001 (ip), vehicle: other) was 102 % of control.
